Experimental data taken from patent US20100222319A1, “NICOTINAMIDE DERIVATIVES, PREPARATION THEREOF AND THERAPEUTIC USE THEREOF” (SANOFI-AVENTIS, priority 2007, published 2010).

Assays:
HCT116 (ATCC-CCL247) = assay: MTS cell proliferation and viability test on HCT116 tumour line; assay type: cell-based; details: Homo sapiens, HCT-116, incubating the test compound for 72 hours, read-out: IC50 HCT116 (concentration which results in 50% loss of cell proliferation and viability)
Method: (§1) The compounds described in Table I have formed the subject of pharmacological trials which make it possible to determine the anticancer activity. They were tested in vitro on the following tumour lines: HCT116 (ATCC-CCL247) and PC3 (ATCC-CRL1435). The cell proliferation and viability were determined in a test using 3-(4,5-dimethylthiazol-2-yl)-5-(3-carboxymethoxyphenyl)-2-(4-sulphophenyl)-2H-tetrazolium (MTS) according to Fujishita T. et al., Oncology, 2003, 64(4), 399-406. In this test, the mitochondrial capacity of the living cells to convert MTS to a coloured compound after incubating the test compound for 72 hours is measured. The concentration of compound which results in 50% loss of cell proliferation and viability is recorded as IC50.

PC3 (ATCC-CRL1435) = assay: MTS cell proliferation and viability test on PC3 tumour line; assay type: cell-based; details: incubating the test compound for 72 hours, read-out: IC50 PC3 (concentration which results in 50% loss of cell proliferation and viability)
Method: as §1

melting point [°C]	IC50 (HCT116 (ATCC-CCL247)) [nM]	IC50 (PC3 (ATCC-CRL1435)) [nM]	SMILES
160 to 162			CCNc1nc(-c2ccc(NC(=O)NCc3cccnc3)cc2)ccc1C(=O)NCCN(C(C)C)C(C)C [Compound 8, N-(2-Diisopropylamino-ethyl)-2-ethylamino-6-[4-(3-pyridin-3-ylmethyl-ureido)-phenyl]-nicotinamide]
	34	28	CNC(=O)c1ccc(-c2ccc(NC(=O)NCc3cccnc3)cc2)nc1NCc1ccccc1 [Compound 19, 2-Benzylamino-N-methyl-6-[4-(3-pyridin-3-ylmethyl-ureido)-phenyl]-nicotinamide]
	294	266	CNC(=O)c1ccc(-c2ccc(NC(=O)NCc3cccnc3)cc2)nc1NCCN1CCCCC1 [Compound 17, N-Methyl-2-(2-piperidin-1-yl-ethylamino)-6-[4-(3-pyridin-3-ylmethyl-ureido)-phenyl]-nicotinamide]
223 to 226			CCNc1nc(-c2ccc(NC(=O)NCc3ccc(N)nc3)cc2)ccc1C(=O)NC [Compound 21, 6-{-4-[3-(6-Amino-pyridin-3-ylmethyl)-ureido]-phenyl}-2-ethylamino-N-methyl-nicotinamide]
	0.1	0.1	CNC(=O)c1ccc(-c2ccc(NC(=O)NCc3cccnc3)cc2)nc1NC1CC1 [Compound 23, 2-Cyclopropylamino-N-methyl-6-[4-(3-pyridin-3-ylmethyl-ureido)-phenyl]-nicotinamide]
234 to 235			CCNc1nc(-c2ccc(NC(=O)OCc3cccnc3)cc2)ccc1C(=O)NC [Compound 29, [4-(6-Ethylamino-5-methylcarbamoyl-pyridin-2-yl)-phenyl]-carbamic acid pyridin-3-ylmethyl ester]
	2.5	1.2	CCNc1cc(-c2ccc(NC(=O)NCc3cccnc3)cc2)ccc1C(=O)NC [Compound 62, 3-Ethylamino-4′-(3-pyridin-3-ylmethyl-ureido)-biphenyl-4-carboxylic acid methylamide]
260 to 263			CCNc1nc(-c2ccc(NC(=O)NCc3cccnc3)cc2)ccc1C(=O)NC [Compound 1, 2-Ethylamino-N-methyl-6-[4-(3-pyridin-3-ylmethyl-ureido)-phenyl]-nicotinamide]
	35	45	CCNc1cc(-c2ccc(NC(=O)NCc3cccnc3)cc2)ncc1C(=O)NC [Compound 55, 4-Ethylamino-N-methyl-6-[4-(3-pyridin-3-ylmethyl-ureido)-phenyl]-nicotinamide]
	2.2	1.7	CCN(CC)c1nc(-c2ccc(NC(=O)NCc3cccnc3)cc2)ccc1C(=O)NC [Compound 25, 2-Diethylamino-N-methyl-6-[4-(3-pyridin-3-ylmethyl-ureido)-phenyl]-nicotinamide]
	0.1	0.1	CCNc1nc(-c2ccc(NC(=O)NCc3ccc(N)nc3)cc2)ccc1C(=O)NCCN1CCCCC1 [Compound 81, 6-{-4-[3-(6-Amino-pyridin-3-ylmethyl)-ureido]-phenyl}-2-ethylamino-N-(2-piperidin-1-yl-ethyl)-nicotinamide]
218 to 219			CNC(=O)c1ccc(-c2ccc(NC(=O)NCc3cccnc3)cc2)nc1NCc1ccncc1 [Compound 15, N-Methyl-2-[(pyridin-4-ylmethyl)-amino]-6-[4-(3-pyridin-3-ylmethyl-ureido)-phenyl]-nicotinamide]
	116	21	CCNc1nc(-c2ccc(NC(=O)/C=C/c3cccnc3)cc2)ccc1C(=O)NCCN(C(C)C)C(C)C [Compound 74, N-(2-Diisopropylamino-ethyl)-2-ethylamino-6-[4-((E)-3-pyridin-3-yl-acryloylamino)-phenyl]-nicotinamide]
	77	78	CNC(=O)c1ccc(-c2ccc(NC(=O)NCc3cccnc3)cc2)nc1NCCOC [Compound 51, 2-(2-Methoxy-ethylamino)-N-methyl-6-[4-(3-pyridin-3-ylmethyl-ureido)-phenyl]-nicotinamide]
	1.8	0.8	CCNc1nc(-c2ccc(NC(=O)NCc3cccnc3)cc2)ccc1C(=O)NCCN1CCNCC1 [Compound 5, 2-Ethylamino-N-(2-piperazin-1-yl-ethyl)-6-[4-(3-pyridin-3-ylmethyl-ureido)-phenyl]-nicotinamide]
234 to 236	0.1	0.1	CNC(=O)c1ccc(-c2ccc(NC(=O)NCc3cccnc3)cc2)nc1Nc1ccccc1 [Compound 22, N-Methyl-2-phenylamino-6-[4-(3-pyridin-3-ylmethyl-ureido)-phenyl]-nicotinamide]
	271	345	CCNc1nc(-c2ccc(NC(=O)NCc3ccc(NC(C)C)nc3)cc2)ccc1C(=O)NCCN1CCCCC1 [Compound 108, 2-Ethylamino-6-{-4-[3-(6-isopropylamino-pyridin-3-ylmethyl)-ureido]-phenyl}-N-(2-piperidin-1-yl-ethyl)-nicotinamide]
	11	10	CCNc1nc(-c2ccc(NC(=O)NCc3cccnc3)cc2)ncc1C(=O)NC [Compound 47, 4-Ethylamino-2-[4-(3-pyridin-3-ylmethyl-ureido)-phenyl]-pyrimidine-5-carboxylic acid methylamide]
	221	105	CCNc1nc(-c2ccc(NC(=O)NCc3ccc(NC(=O)C(C)C)nc3)cc2)ccc1C(=O)NCCN1CCCCC1 [Compound 107, 2-Ethylamino-6-{4-[3-(6-isobutyrylamino-pyridin-3-ylmethyl)-ureido]-phenyl}-N-(2-piperidin-1-yl-ethyl)-nicotinamide]
	331	316	CNC(=O)c1ccc(-c2ccc(NC(=O)NCc3cccnc3)cc2)nc1N1CCCC1 [Compound 49, N-Methyl-6-[4-(3-pyridin-3-ylmethyl-ureido)-phenyl]-2-pyrrolidin-1-yl-nicotinamide]
	19	113	CNC(=O)c1ccc(-c2ccc(NC(=O)NCc3cccnc3)cc2)nc1NCc1cccnc1 [Compound 12, N-Methyl-2-[(pyridin-3-ylmethyl)-amino]-6-[4-(3-pyridin-3-ylmethyl-ureido)-phenyl]-nicotinamide]
164 to 165	0.1	0.2	CCNc1nc(-c2ccc(NC(=O)NCc3cccnc3)cc2)ccc1C(=O)NCCN1CCCCC1 [Compound 13, 2-Ethylamino-N-(2-piperidin-1-yl-ethyl)-6-[4-(3-pyridin-3-ylmethyl-ureido)-phenyl]-nicotinamide]
	0.1	0.1	CCNc1nc(-c2ccc(NC(=O)NCc3ccc(N)nc3)cc2)ccc1C(=O)NCCN1C[C@@H](C)O[C@@H](C)C1 [Compound 114, 6-{-4-[3-(6-Amino-pyridin-3-ylmethyl)-ureido]-phenyl}-N-[2-(cis-2,6-dimethyl-morpholin-4-yl)-ethyl]-2-ethylamino-nicotinamide]
	0.37	0.3	O=C(NCc1cccnc1)Nc1ccc(-c2ccc(C(=O)NCCN3CCCC3)c(Nc3ccccc3)n2)cc1 [Compound 33, 2-Phenylamino-6-[4-(3-pyridin-3-ylmethyl-ureido)-phenyl]-N-(2-pyrrolidin-1-yl-ethyl)-nicotinamide]
	6.3	4.4	CCNc1nc(-c2ccc(NC(=O)NCc3cccnc3)cc2)ccc1C(=O)NCCO [Compound 26, 2-Ethylamino-N-(2-hydroxy-ethyl)-6-[4-(3-pyridin-3-ylmethyl-ureido)-phenyl]-nicotinamide]
234 to 236			CNC(=O)c1ccc(-c2ccc(NC(=O)NCc3cccnc3)cc2)nc1N [Compound 3, 2-Amino-N-methyl-6-[4-(3-pyridin-3-ylmethyl-ureido)-phenyl]-nicotinamide]
	1.8	3	CCNc1nc(-c2ccc(NC(=O)NCc3ccc(N)nc3)cc2)ccc1C(=O)NCCN1CC[S+]([O-])CC1 [Compound 103, 6-{-4-[3-(6-Amino-pyridin-3-ylmethyl)-ureido]-phenyl}-2-ethylamino-N-[2-(1-oxo-1-thiomorpholin-4-yl)-ethyl]-nicotinamide]
